This is an account of results in publication PMC10224356, “Trisubstituted 1,3,5-Triazines as Histamine H4 Receptor Antagonists with Promising Activity In Vivo” (Molecules, 2023).

Series [1] has as its target T1, hH4R (Homo sapiens, UniProt Q9H3N8). Briefly: β-arrestin recruitment assay (LiveBLAzer, Tango-H4-bla U2OS cells). It counts as cell-based. More on the design: expressed in transfected cells; host or cells: Tango-H4-bla U2OS cells. To be noted: for IC50 / β-arrestin hH4R % of max. Antagonist Activity at 10 µM: antagonist mode; for IC50: histamine 500 nM (EC80), Tango-H4-bla U2OS cells, read-out: β-arrestin hH4R IC50 ± SEM; for Kb: calculated from IC50 by Leff–Dougall variant of Cheng–Prusoff equation, read-out: pKb β-arrestin ± SEM (converted). As to the method:
Compounds were tested using LiveBLAzer^TM assay and Tango-H4-bla U2OS cells, allowing the estimation of the percentage of β-arrestin recruitment in response to tested treatments.
All used media and reagents except DMSO and tested compounds were purchased from ThermoFisher Scientific, Waltham, MA, USA. DMSO was from CarlRoth (Karlsruhe, Germany) and histamine was from Sigma Aldrich (Darmstadt, Germany). […] The day before the experiment cells were collected from the culture flask with trypsin and seeded in 384 well black-wall, clear-bottom plate (PerkinElmer, Waltham, MA, USA) in concentration 10,000 cells/well in FreeStyle medium. After 24 h of incubation, the cells were checked under the microscope and the dilutions of tested compounds were prepared and added to the wells. In agonist mode compounds were added to the wells and plates were placed in the incubator (HERAcell240, Heraeus, Hanau, Germany) for 16 h. In antagonist mode, first, the compounds were added to the wells, plates were incubated for 30 min, then histamine solution (corresponding to EC80—500 nM) was added and plates were put in the incubator for 16 h. After this time β-lactamase substrate mixture was prepared and added to wells (8 µL/well). Cells were incubated for 2 h at room temperature in the dark then the signal was read using an EnSpire microplate reader (PerkinElmer, Waltham, MA, USA). Drawing of dose-dependent curves and IC50 calculation for compounds were made using GraphPad Prism 6 (GraphPad Software, San Diego, CA, USA).

Series [2] has as its target T1, hH4R. Briefly: cAMP accumulation assay (LANCE Ultra cAMP, CHO-K1 cells stably expressing hH4R). Type of series: cell-based. To be noted: antagonist mode. Set-up: expressed in transfected cells.
For series [3], the target named is T2, human histamine H4 receptor (Homo sapiens, UniProt Q9H3N8).
T2 construct: made in house; host or cells: Sf9 cells (membrane preparations)
T2 sequence (Q9H3N8 whole entry): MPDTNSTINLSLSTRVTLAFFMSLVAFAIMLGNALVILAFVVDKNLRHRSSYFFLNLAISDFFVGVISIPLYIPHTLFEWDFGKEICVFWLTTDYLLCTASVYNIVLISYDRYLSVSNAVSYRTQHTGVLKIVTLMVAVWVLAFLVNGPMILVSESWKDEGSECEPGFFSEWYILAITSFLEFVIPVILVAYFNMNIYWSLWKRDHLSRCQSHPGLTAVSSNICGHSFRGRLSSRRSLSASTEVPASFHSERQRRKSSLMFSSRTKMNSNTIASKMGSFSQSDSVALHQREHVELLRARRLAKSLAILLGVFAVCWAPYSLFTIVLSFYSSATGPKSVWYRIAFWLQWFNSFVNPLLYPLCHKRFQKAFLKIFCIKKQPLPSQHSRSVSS
Briefly: [3H]histamine displacement assay, membranes of Sf9 cells expressing hH4R with Gαi2 and Gβ1γ2. Type of series: binding. The conditions noted are these: for Ki: Sf9 membranes, mean within 95% CI; for inhibition at 1 µM: per cent of inhibition at 1 μM, read-out: hH4R inh. at 1 μM. How it is done:
The affinity of compounds 2–20 for hH4R was evaluated in a binding assay as previously described. [^3H]Histamine was used as a radioligand and hH4R was expressed in Sf9 cells with G protein Gαi2 and Gβ1γ2 subunits. The pharmacological results represented as Ki values are listed in Table 1 (for alicyclic derivatives) and Table 2 (for aliphatic derivatives). […] Results depended on the substituent in the four positions of a triazine (a main structure).
Affinities of all triazine derivatives were determined in a [^3H] histamine (f.c. 10 nM) displacement assay using membrane preparations from Sf9 cells expressing human H4R and co-expressed with Gαi2 and Gβ1γ2 subunits as described previously. Nonspecific binding was determined in the presence of unlabelled JNJ7777120 ([…]).

Series [4] addresses T1, hH4R. Briefly: cAMP accumulation assay (LANCE Ultra cAMP, CHO-K1 cells stably expressing hH4R). Set-up: expressed in transfected cells. To be noted: for IC50: forskolin 10 µM, histamine 140 nM, CHO-K1 hH4R cells, read-out: cAMP hH4R IC50 ± SEM; for Kb: calculated from IC50 by Leff–Dougall variant of Cheng–Prusoff equation, read-out: pKb cAMP ± SEM (converted). Type of series: cell-based. How it is done: Intrinsic activity via the Gα subunit was measured using a LANCE Ultra cAMP detection kit and CHO-K1 cells stably expressing hH4R. Adenyl cyclase was stimulated by forskolin (10 µM).
Intrinsic activity in G protein-dependent pathway was measured with homogenous TR-FRET immunoassay, using LANCE Ultra cAMP kit and CHO-K1 H4R cell line or γ-irradiated recombinant CHO-K1 H4R cells (all from PerkinElmer). […] If the CHO-K1 H4R cell line was used it had been cultivated in DMEM/F12 10% FBS 400 µg/mL geneticin and passaged three times a week. […] The antagonist activity was measured in a white, opaque, 384-well microplate (PerkinElmer) with a total volume of 20 µL. […] After incubation, 5 µL of europium chelate-labelled cAMP tracer and 5 µl of ULight-labelled anti-cAMP mAb working solutions were added, mixed and incubated for 1 h. TR-FRET signal was read using a microplate reader (PerkinElmer, Waltham, MA, USA).

Where “and” joins values, the source holds several entries; their conditions need not be identical. Equal values may be shown once.

T1 sequence (Q9H3N8 whole entry): as above

As a reminder, the IC50 is the point on the concentration scale where inhibition reaches its midpoint. By melting point is commonly meant the temperature of the solid-liquid transition. The term Ki denotes the equilibrium dissociation constant of an inhibitor or competing ligand from its target. Low values mean higher affinity, high ones lower affinity. `C=CCC(C)c1nc(N)nc(N2CCN(C)CC2)n1` (centres unmarked) [Compound 17, 4-(4-Methylpiperazin-1-yl)-6-(pent-4-en-2yl)-1,3,5-triazin-2-amine] yielded a melting point of 134 to 136 °C. Moreover, at hH4R [1], the IC50 amounted to 744 ± 139 nM, the “β-arrestin hH4R % of max. Antagonist Activity at 10 µM” value (“β-arrestin hH4R %” below) was found to be 92% and the Kb was 117 nM. In addition, at hH4R [2], the “cAMP hH4R % of max. Antagonist Activity at 10 µM” value (shortened to “cAMP hH4R %”) worked out at 94%. In series [3], this molecule came in with a Ki of 263 nM. Moreover, the half-maximal inhibitory concentration (IC50) on hH4R [4] (antagonist mode) was determined as 721 ± 70 nM. For the same molecule, the Kb on hH4R [4] is 257 nM.
For the molecule `CN1CCN(c2nc(N)nc(C3CCC3)n2)CC1` [Compound 3, 4-Cyclobutyl-6-(4-methylpiperazin-1-yl)-1,3,5-triazin-2-amine], the melting point fell in the range of 127 to 132 °C. In addition, at hH4R [1], the concentration for half-maximal inhibition (IC50) is 100 ± 15 nM, the “β-arrestin hH4R %” value was determined as 87% and the Kb is 16.6 nM. The “cAMP hH4R %” value on hH4R [2] worked out at 109%. The Ki in series [3] is ~200 nM and 200 nM. At hH4R [4] (antagonist mode), the IC50 amounted to 104 ± 17 nM. For the same molecule, the Kb on hH4R [4] is 37.2 nM.
`CN1CCN(c2nc(N)nc(CC34CC5CC(CC(C5)C3)C4)n2)CC1` [Compound 9, 4-(1-Adamantylmethyl)-6-(4-methylpiperazin-1-yl)-1,3,5-triazin-2-amine] showed a melting point of 200 to 201 °C. In series [3], the inhibition at 1 µM worked out at 43%.
As to `S=C(NC1CCCCC1)N1CCC(c2cnc[nH]2)CC1` [Thioperamide, reference compound], at hH4R [1], the “β-arrestin hH4R %” value amounted to 102%. Moreover, at hH4R [4] (at 10 µM, antagonist mode), the “cAMP hH4R %” value was found to be 111%.
`CCCCCc1nc(N)nc(N2CCN(C)CC2)n1` [Compound 19, 4-(4-Methylpiperazin-1-yl)-6-pentyl-1,3,5-triazin-2-amine] displayed a melting point of 173 to 178 °C. Further, on hH4R [1], the IC50 came to 34.9 ± 7 nM, the “β-arrestin hH4R %” value came to 99% and the Kb was 5.62 nM. For the same molecule, the “cAMP hH4R %” value on hH4R [2] was determined as 97%. In addition, the Ki in series [3] was 393 nM. In addition, the 50% inhibitory concentration (IC50) on hH4R [4] (antagonist mode) amounted to 419 ± 77 nM. Further, at hH4R [4], the Kb was 145 nM.
The molecule `CN1CCN(c2nc(N)nc(CC3C=CCC3)n2)CC1` (centres unmarked) [Compound 7, 4-(Cyclopent-2-enylmethyl)-6-(4-methylpiperazin-1-yl)-1,3,5-triazin-2-amine] registered a melting point of 166 to 169 °C. Moreover, on hH4R [1], the IC50 was determined as 14 ± 1 nM, the “β-arrestin hH4R %” value was 103% and the Kb was 2.34 nM. The “cAMP hH4R %” value at hH4R [2] was 104%. In series [3], this molecule gave a Ki of 96 nM. In addition, the IC50 on hH4R [4] (antagonist mode) worked out at 33 ± 2 nM. The Kb at hH4R [4] is 11.5 nM.
`CN1CCN(c2nc(N)nc(C3CCCC3)n2)CC1` [Compound 4, 4-Cyclopentyl-6-(4-methylpiperazin-1-yl)-1,3,5-triazin-2-amine] had a melting point of 163 to 169 °C. On hH4R [1], the IC50 amounted to 68.8 ± 2 nM, the “β-arrestin hH4R %” value worked out at 95% and the Kb is 11.5 nM. Besides, on hH4R [2], the “cAMP hH4R %” value worked out at 95%. This molecule had a Ki in series [3] of 1240 nM. Besides, the IC50 on hH4R [4] (antagonist mode) worked out at 102 ± 2 nM. On hH4R [4], the Kb is 36.3 nM.
Regarding `CN1CCN(c2nc(N)nc(C3CC3)n2)CC1` [Compound 2, 4-Cyclopropyl-6-(4-methylpiperazin-1-yl)-1,3,5-triazin-2-amine], the melting point fell in the range of 156 to 159 °C. Further, on hH4R [1], the IC50 was found to be 287 ± 30 nM, the “β-arrestin hH4R %” value is 96% and the Kb was 47.9 nM. Further, the “cAMP hH4R %” value on hH4R [2] was 99%. For the same molecule, the inhibition constant Ki in series [3] is 574 nM. Moreover, on hH4R [4] (antagonist mode), the 50% inhibitory concentration (IC50) turned out to be 847 ± 53 nM. Also, on hH4R [4], the Kb is 302 nM.
Molecule `CCCCc1nc(N)nc(N2CCN(C)CC2)n1` [Compound 10, 4-Butyl-6-(4-methylpiperazin-1-yl)-1,3,5-triazin-2-amine] returned a melting point of 117 to 118 °C. Besides, on hH4R [1], the IC50 was 82 ± 5 nM, the “β-arrestin hH4R %” value is given as 96% and the Kb was 13.5 nM. Moreover, the “cAMP hH4R %” value on hH4R [2] is given as 105%. Besides, in series [3], the affinity corresponds to a Ki of 192 nM. Further, the IC50 on hH4R [4] (antagonist mode) came out at 445 ± 10 nM. The Kb at hH4R [4] was 158 nM.
In the case of `CCC(C)Cc1nc(N)nc(N2CCN(C)CC2)n1` (centres unmarked) [Compound 12, 4-(2-Methylbutyl)-6-(4-methylpiperazin-1-yl)-1,3,5-triazin-2-amine], the melting point was in the range of 115 to 116 °C. Also, on hH4R [1], the IC50 is 38 ± 7 nM, the “β-arrestin hH4R %” value came to 100% and the Kb is 6.17 nM. Further, the “cAMP hH4R %” value at hH4R [2] is 111%. Moreover, in series [3], the Ki is 321 nM. Besides, on hH4R [4] (antagonist mode), the IC50 came to 132 ± 9 nM. Besides, on hH4R [4], the Kb is 46.8 nM.
The molecule `CN1CCN(c2nc(N)nc(C3CCCCC3)n2)CC1` [Compound 5, 4-Cyclohexyl-6-(4-methylpiperazin-1-yl)-1,3,5-triazin-2-amine] registered a melting point of 133 to 138 °C. At hH4R [1], the IC50 was 101 ± 10 nM, the “β-arrestin hH4R %” value turned out to be 92% and the Kb was 16.6 nM. Moreover, the “cAMP hH4R %” value at hH4R [2] came out at 98%. Further, the inhibition constant (Ki) in series [3] was 432 nM. On hH4R [4] (antagonist mode), the 50% inhibitory concentration (IC50) was 219 ± 24 nM. At hH4R [4], the Kb is 75.9 nM.
For the molecule `CC/C=C/c1nc(N)nc(N2CCN(C)CC2)n1` [Compound 15, (E) 4-(But-1-enyl)-6-(4-methylpiperazin-1-yl)-1,3,5-triazin-2-amine], the melting point is 125 to 126 °C. For the same molecule, the Ki in series [3] amounted to 1490 nM.
The molecule `CCCC(C)c1nc(N)nc(N2CCN(C)CC2)n1` (centres unmarked) [Compound 11, 4-(4-Methylpiperazin-1-yl)-6-(pentan-2-yl)-1,3,5-triazin-2-amine] gave a melting point of 138 to 140 °C. Also, on hH4R [1], the IC50 came out at 97 ± 16 nM, the “β-arrestin hH4R %” value turned out to be 97% and the Kb was 15.8 nM. On hH4R [2], the “cAMP hH4R %” value was 100%. The Ki in series [3] came out at 353 nM. For the same molecule, at hH4R [4] (antagonist mode), the IC50 was 640 ± 49 nM. Also, the Kb at hH4R [4] is 224 nM.
With `CC/C=C/Cc1nc(N)nc(N2CCN(C)CC2)n1` [Compound 20, (E)-4-(4-Methylpiperazin-1-yl)-6-(pent-2-enyl)-1,3,5-triazin-2-amine], the melting point was in the range of 117 to 119 °C. In addition, at hH4R [1], the IC50 was found to be 376 ± 9 nM and the “β-arrestin hH4R %” value came to 101%. The inhibition at 1 µM in series [3] stood at 6%.
In the case of `CN1CCN(c2nc(N)nc(CC3CCCCC3)n2)CC1` [TR-AF-49], on hH4R [1], the IC50 turned out to be 68 ± 7 nM, the “β-arrestin hH4R %” value stood at 99% and the Kb was 11.2 nM. The “cAMP hH4R %” value at hH4R [2] turned out to be 98%. Also, on hH4R [4] (antagonist mode), the IC50 was determined as 271 ± 11 nM. Besides, at hH4R [4], the Kb is 95.5 nM.
The molecule `COC(C)Cc1nc(N)nc(N2CCN(C)CC2)n1` (centres unmarked) [Compound 13, 4-(2-Methoxypropyl)-6-(4-methylpiperazin-1-yl)-1,3,5-triazin-2-amine] showed a melting point of 148 to 151 °C. The molecule further returned a Ki in series [3] of 4260 nM.
